{"source": "paper PMC10058949", "about": "“Effect of N-Terminal Peptide Modifications on In Vitro and In Vivo Properties of ^177Lu-Labeled Peptide Analogs Targeting CCK2R” (Pharmaceutics, 2023)", "assay": "Biodistribution 4 h p.i. in A431-CCK2R/A431-mock xenografted BALB/c nude mice", "assay_type": "in vivo", "details": "female, BALB/c nude, mouse, in vivo, iv, 20 pmol, total radioactivity", "data": [{"smiles": "CCCC[C@@H](C(=O)N[C@@H](CC(=O)O)C(=O)N[C@@H](Cc1cccc2ccccc12)C(N)=O)N(C)C(=O)[C@H](Cc1c[nH]c2ccccc12)NC(=O)CCNC(=O)CC(O)CNC(=O)CC(O)CNC(=O)CN1CCN(CC(=O)O)CCN(CC(=O)O)CCN(CC(=O)O)CC1", "note": "(some centres unmarked) [[^177Lu]Lu-2, metal not drawn]", "values": [{"measurement": "tissue to tissue ratio at 4 h", "result": 17}, {"measurement": "tissue uptake at 4 h", "setting": "uptake in A431-CCK2R xenografts", "result": "32.1 ± 4.05", "unit": "%ID/g"}, {"measurement": "tissue uptake at 4 h", "setting": "uptake in A431-mock xenografts", "result": "0.22 ± 0.06", "unit": "%ID/g"}, {"measurement": "tissue uptake at 4 h", "setting": "uptake in blood", "result": "0.03 ± 0.01", "unit": "%ID/g"}, {"measurement": "tissue uptake at 4 h", "setting": "uptake in femur", "result": "0.22 ± 0.15", "unit": "%ID/g"}, {"measurement": "tissue uptake at 4 h", "setting": "uptake in heart", "result": "0.07 ± 0.02", "unit": "%ID/g"}, {"measurement": "tissue uptake at 4 h", "setting": "uptake in intestine", "result": "0.6 ± 0.12", "unit": "%ID/g"}, {"measurement": "tissue uptake at 4 h", "setting": "uptake in kidneys", "result": "1.96 ± 0.29", "unit": "%ID/g"}, {"measurement": "tissue uptake at 4 h", "setting": "uptake in liver", "result": "1.43 ± 0.18", "unit": "%ID/g"}, {"measurement": "tissue uptake at 4 h", "setting": "uptake in lung", "result": "0.22 ± 0.06", "unit": "%ID/g"}, {"measurement": "tissue uptake at 4 h", "setting": "uptake in muscle", "result": "0.06 ± 0.03", "unit": "%ID/g"}, {"measurement": "tissue uptake at 4 h", "setting": "uptake in pancreas", "result": "0.72 ± 0.14", "unit": "%ID/g"}, {"measurement": "tissue uptake at 4 h", "setting": "uptake in spleen", "result": "0.96 ± 0.3", "unit": "%ID/g"}, {"measurement": "tissue uptake at 4 h", "setting": "uptake in stomach", "result": "4.3 ± 0.95", "unit": "%ID/g"}]}]}
